Tests used:
5-HT1A receptor = biological target: T1, 5-HT1A receptor (Homo sapiens, UniProt P08908); test: cAMP-Glo assay in +5-HT1A cells (CHO-K1/5-HT1A/Gα15) with 4 μM forskolin; assay type: cell-based; details: for cAMP / luminescence response to varying dosage of test molecule: +5HT1A cell cultures, fixed 4 μM forskolin, FIGS. 14H-14L
T1 construct: host or cells: CHO-K1 (co-expressing Gα15)
T1 sequence (P08908 1-422): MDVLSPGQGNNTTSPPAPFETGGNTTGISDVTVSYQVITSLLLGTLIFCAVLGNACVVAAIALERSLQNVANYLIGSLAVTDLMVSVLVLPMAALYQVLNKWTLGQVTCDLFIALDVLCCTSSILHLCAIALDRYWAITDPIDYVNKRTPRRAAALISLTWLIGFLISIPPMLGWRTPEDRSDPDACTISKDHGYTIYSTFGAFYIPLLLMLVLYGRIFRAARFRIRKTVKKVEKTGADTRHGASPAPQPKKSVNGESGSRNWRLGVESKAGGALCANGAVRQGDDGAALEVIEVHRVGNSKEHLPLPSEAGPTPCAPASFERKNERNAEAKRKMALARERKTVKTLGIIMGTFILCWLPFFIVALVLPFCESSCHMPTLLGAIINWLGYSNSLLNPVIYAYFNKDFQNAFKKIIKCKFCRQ
Description: (§1) CHO-K1/Gα15 (GenScript, M00257) (−5-HT1A) and CHO-K1/5-HT1A/Gα15 (GenScript, M00330) (+5-HT1A) cells lines were used. Briefly, CHO-K1/Gα15 is a control cell line that constitutively expresses Gα15 which is a promiscuous Gq protein. This control cell line lacks any transgene encoding 5-HT1A receptors, but still responds to forskolin; thus, cAMP response to forskolin should be the same regardless of whether or not 5-HT1A agonists are present. Conversely, CHO-K1/5-HT1A/Gα15 cells stably express 5-HT1A receptor in the CHO-K1 host background. […] In+5-HT1A cells, Gα15 may be recruited in place of Gαi/o, which could theoretically dampen cAMP response (Rojas and Fiedler 2016, Front Cell Neurosci 10: 272). […] Cells were maintained in complete growth media as recommended by supplier (GenScript) which is constituted as follows: Ham's F12 Nutrient mix (HAM's F12, GIBCO #11765-047) with 10% fetal bovine serum (FBS) (Thermo Scientific #12483020), 200 μg/ml zeocin (Thermo Scientific #R25005) and/or 100 μg/ml hygromycin (Thermo Scientific #10687010). The cells were cultured in a humidified incubator with 37° C. and 5% CO2. Cells maintenance was carried out as recommended by the cell supplier. Briefly, vials with cells were removed from the liquid nitrogen and thawed quickly in 37° C. water bath. Just before the cells were completely thawed the vial's outside was decontaminated by 70% ethanol spray. The cell suspension was then retrieved from the vial and added to warm (37° C.) complete growth media, and centrifuged at 1,000 rpm for 5 minutes. The supernatant was discarded, and the cell pellet was then resuspended in another 10 ml of complete growth media, and added to the 10 cm cell culture dish (Greiner Bio-One #664160). The media was changed every third day until the cells were about 90% confluent. The ˜90% confluent cells were then split 10:1 for maintenance or used for experiment.
As 5-HT1A activation inhibits cAMP formation, the agonist activity of test molecules on 5-HT1A was measured via the reduction in the levels of cAMP produced due to application of 4 μM forskolin. The change in intracellular cAMP levels due to the treatment of novel molecules was measured using cAMP-Glo Assay kit (Promega #V1501). Briefly, +5-HT1A cells were seeded on 1-6 columns and base −5-HT1A cells were seeded on columns 7-12 of the white walled clear bottom 96-well plate (Corning, #3903). Both cells were seeded at the density of 30,000 cells/well in 100 μl complete growth media and cultured 24 hrs in humidified incubator at 37° C. and 5% CO2. On the experiment day, the media of cells was replaced with serum/antibiotic free culture media. […] Reduced ATP caused reduced conversion of luciferin to oxyluciferin, conferring diminished luminescence as the result of 5-HT1A activation. […]

5-HT2A receptor = biological target: T2, 5-HT2A receptor (Homo sapiens, UniProt P28223); test: [3H]ketanserin competition binding assay (Scintillation Proximity Assay) on membranes containing 5-HT2A; details: fixed 1 nM [3H]ketanserin; for competition binding curve result (binding / no binding): psilocin 30 pM to 10 μM, tryptophan 3 nM to 1 mM, FIGS. 14C, 14D
T2 construct: purchased PerkinElmer ES-313-M400UA
T2 sequence (P28223 whole entry): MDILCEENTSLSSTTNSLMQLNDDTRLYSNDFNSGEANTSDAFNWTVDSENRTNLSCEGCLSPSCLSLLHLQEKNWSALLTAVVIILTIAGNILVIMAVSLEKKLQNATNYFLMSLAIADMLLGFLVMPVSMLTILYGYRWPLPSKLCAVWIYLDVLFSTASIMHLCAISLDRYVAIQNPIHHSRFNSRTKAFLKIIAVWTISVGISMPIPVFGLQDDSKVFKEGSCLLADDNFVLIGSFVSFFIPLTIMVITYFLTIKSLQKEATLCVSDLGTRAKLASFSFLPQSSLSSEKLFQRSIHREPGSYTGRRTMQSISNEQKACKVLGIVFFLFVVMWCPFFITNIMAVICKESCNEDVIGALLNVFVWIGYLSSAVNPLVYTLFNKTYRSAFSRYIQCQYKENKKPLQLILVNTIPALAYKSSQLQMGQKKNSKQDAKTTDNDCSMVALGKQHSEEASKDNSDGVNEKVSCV
Description: Evaluation of drug binding is an essential step to characterization of all drug-target interactions (Fang 2012, Exp Opin Drug Discov 7:969). The binding affinity of a drug to a target is traditionally viewed as an acceptable surrogate of its in vivo efficacy (Núñez et al., 2012, Drug Disc Today 17: 10). Competition assays, also called displacement or modulation binding assays, are a common approach to measure activity of a ligand at a target receptor (Flanagan 2016, Methods Cell Biol 132: 191). In these assays, standard radioligands acting either as agonists or antagonists are ascribed to specific receptors. In the case of G protein-coupled receptor 5-HT2A, [^3H]ketanserin is a well-established antagonist used routinely in competition assays to evaluate competitive activity of novel drug candidates at the 5-HT2A receptor (Maguire et al., 2012, Methods Mol Biol 897: 31). Thus, to evaluate activity of novel psilocybin derivatives at the 5-HT2A receptor, competition assays using [^3H]ketanserin were employed as follows. SPA beads (RPNQ0010), [^3H] ketanserin (NET1233025UC), membranes containing 5-HT2A (ES-313-M400UA), and isoplate-96 microplate (6005040) were all purchased from PerkinElmer. Radioactive binding assays were carried out using Scintillation Proximity Assay (SPA). […] After incubation, the samples were read on a MicroBeta 2 Microplate Counter (Perkin Elmer). […] Equilibrium binding constants for ketanserin (Kd) were determined from saturation binding curves using the ‘one-site saturation binding analysis’ method of GraphPad PRISM software (Version 9.2.0). […] Ki values were calculated from the competition displacement data using the competitive binding analysis from GraphPad PRISM software. […] Specific binding in counts per minute (cpm) was calculated by subtracting non-specific binding from total binding. Specific binding (pmol/mg) was calculated from pmol of [^3H]ketanserin bound per mg of protein in the assay. The Kd was calculated by fitting the data with the one-site binding model of PRISM software (version 9.2.0). […]

[1] = test system: CHO-K1/Gα15 (−5-HT1A) cells; test: cAMP-Glo assay in −5-HT1A control cells (CHO-K1/Gα15) with 4 μM forskolin; assay type: cell-based; details: for trend of % cAMP levels with decreasing dosage of test molecule: −5HT1A cell cultures, fixed 4 μM forskolin
Description: as §1, with “The supernatant was discarded, and the cell pellet was then resuspended in another 10 ml of complete growth media, and added to the 10 cm cell culture dish (Greiner Bio-One #664160). The media was changed every third day until the cells were about 90% confluent. The ˜90% confluent cells were then split 10:1 for maintenance or used for experiment.” left out
As 5-HT1A activation inhibits cAMP formation, the agonist activity of test molecules on 5-HT1A was measured via the reduction in the levels of cAMP produced due to application of 4 μM forskolin. The change in intracellular cAMP levels due to the treatment of novel molecules was measured using cAMP-Glo Assay kit (Promega #V1501). […] Reduced ATP caused reduced conversion of luciferin to oxyluciferin, conferring diminished luminescence as the result of 5-HT1A activation. […]

SMILES | cAMP / luminescence response to varying dosage of test molecule (5-HT1A receptor) | trend of % cAMP levels with decreasing dosage of test molecule [1] | competition binding curve result (binding / no binding) (5-HT2A receptor) | further results
CN(C)CCc1c[nH]c2ccccc12 [DMT, reference compound] | 5-HT1A activity | – | – | –
CC(=O)NCCc1c[nH]c2cc(CC=C(C)C)ccc12 [compound (IV)] | 5-HT1A modulation activity | not observed | – | specific binding of [3H]ketanserin in competition with test compound (5-HT2A receptor; unlabeled test compound 3 nM to 1 mM, competition not complete, FIGS. 14E, 14F): ~50%; modulation of the impact of serotonin on cAMP / luminescence (5-HT1A receptor; +5-HT1A cell cultures, fixed 4 μM forskolin and 10 uM serotonin, FIGS. 14M, 14N): modulated by the presence of compound (IV) in a concentration-dependent manner; modulation of the impact of serotonin on cAMP / luminescence ([1]; −5-HT1A cell cultures, fixed 4 μM forskolin and 10 uM serotonin, FIGS. 14M, 14N): not notable
CN(C)CCc1c[nH]c2cccc(O)c12 [psilocin] | – | – | binding | –
NCCc1c[nH]c2ccc(O)cc12 [serotonin, reference compound] | 5-HT1A binding activity | not observed | – | –
N[C@@H](Cc1c[nH]c2ccccc12)C(=O)O [tryptophan] | – | – | no binding | –

From US11891359B2, “Prenylated psilocybin derivatives and methods of using” (ENVERIC B[…] INC., priority 2021, dated 2024)
